Experimental data: US8865182B2 (priority 2009, dated 2014)

These sequences were tested on HLA-B7 supertype (B*0702, B*3501, B*5101, B*5301, B*5401).
Format: binding, human

| Sequence | # Alleles Bound |
| --- | --- |
| APPKQSRMQF (Influenza Virus) [SEQ ID NO: 304] | 1 |
| GPATAQMAL (Influenza Virus) [SEQ ID NO: 257] | 2 |
| FPSSSYRRPV (Influenza Virus) [SEQ ID NO: 260] | 4 |
| GPALSINEL (Influenza Virus) [SEQ ID NO: 306] | 1 |
| APSPYNSRF (Influenza Virus) [SEQ ID NO: 103] | 2 |
| IPKRNRSIL [SEQ ID NO: 259] | 1 |
| APFSKDNSI (Influenza Virus) [SEQ ID NO: 102] | 1 |
| NPALRMKWM (Influenza Virus) [SEQ ID NO: 299] | 1 |
| YPKVYKTYF (Influenza Virus) [SEQ ID NO: 300] | 2 |
| GPVHFRNQV (Influenza Virus) [SEQ ID NO: 301] | 1 |
| LPFHNVHPL [SEQ ID NO: 67] | 5 |
| VPASRYLTDM (Influenza Virus) [SEQ ID NO: 147] | 2 |
| SPGMMMGMF [SEQ ID NO: 256] | 1 |
| NPRMFLAMI (Influenza Virus) [SEQ ID NO: 252] | 1 |
| MPAHGPAKSM (Influenza Virus) [SEQ ID NO: 258] | 4 |
| IPAEMLASI (Influenza Virus) [SEQ ID NO: 255] | 4 |
| LPRRSGAAGA [SEQ ID NO: 132] | 2 |
| APPEQSRMQF (Influenza Virus) [SEQ ID NO: 305] | 1 |
| FPNEVGARIL (Influenza Virus) [SEQ ID NO: 302] | 5 |
| SPQLEGFSA (Influenza Virus) [SEQ ID NO: 196] | 2 |
| SPYNSRFESV (Influenza Virus) [SEQ ID NO: 104] | 3 |
| RPCFWVELI [SEQ ID NO: 106] | 1 |
| LPACVYGLAV (Influenza Virus) [SEQ ID NO: 133] | 4 |
| RPWVSFNQNL (Influenza Virus) [SEQ ID NO: 105] | 1 |

What follows are sequences tested on HLA-A24 supertype (A*2301, A*2402, A*2902, A*3002).
Format: binding, human

| Sequence | # Alleles Bound |
| --- | --- |
| LWILDRLFF (Influenza Virus) [SEQ ID NO: 84] | 3 |
| FMQALQLLF (Influenza Virus) [SEQ ID NO: 159] | 3 |
| IFLARSALI (Influenza Virus) [SEQ ID NO: 130] | 2 |
| FFLTQGALL (Influenza Virus) [SEQ ID NO: 98] | 3 |
